According to US20240360081A1, “SULFONAMIDE OREXIN RECEPTOR AGONISTS AND USES THEREOF” (Jazz Pharmaceuticals Ireland Limited, priority 2021, published 2024):

Target: T1, human recombinant OX2 (hOX2) receptor expressed in CHO cells (Homo sapiens, UniProt O43614)
T1 construct: host or cells: CHO cells (hOX2-CHO)
T1 sequence (O43614 1-444): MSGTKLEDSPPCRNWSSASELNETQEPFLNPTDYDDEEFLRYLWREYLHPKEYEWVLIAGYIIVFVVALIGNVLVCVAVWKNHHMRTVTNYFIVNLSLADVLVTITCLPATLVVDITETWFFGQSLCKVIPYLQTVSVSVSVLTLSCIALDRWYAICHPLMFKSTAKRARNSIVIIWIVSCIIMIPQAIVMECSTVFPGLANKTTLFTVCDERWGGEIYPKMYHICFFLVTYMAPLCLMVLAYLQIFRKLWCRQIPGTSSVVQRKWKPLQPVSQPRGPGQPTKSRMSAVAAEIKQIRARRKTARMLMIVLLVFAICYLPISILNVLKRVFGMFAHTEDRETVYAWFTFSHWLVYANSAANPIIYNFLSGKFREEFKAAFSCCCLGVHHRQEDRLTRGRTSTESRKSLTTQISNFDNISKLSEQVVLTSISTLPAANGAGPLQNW
Experiment: IP-1 accumulation assay (IP-One HTRF) in hOX2-CHO cells
Assay type: cell-based
Details: 60 min at 37° C., 11 points CRC, response as % of maximal OX-A response
Experimental: The accumulation of Inositol-1 Monophosphate (IP-1) was measured using IP-One HTRF® Terbium cryptate based assay (Cisbio) in human recombinant OX1 (hOX1) and at OX2 (hOX2) receptors expressed in CHO cells (DiscoverX) according to the manufacturer's instructions for cells tested in suspension.
hOX1-CHO and hOX2-CHO cells were seeded into white 384-well plates at a density of 20,000 cells/well in Hank's Balanced Salt Solution (HBSS) containing 20 mM HEPES pH 7.4, 50 mM, LiCl and 0.1% and Bovine Serum Albumin (BSA).
Compounds of the present disclosure were tested in a 11 points concentration response curve (CRC) serially diluted in neat DMSO at 200 fold concentrations and added by Echo acoustic liquid handling (Labcyte) to the cells (0.5% DMSO final in the assay). After 60 min of incubation at 37° C. detection reagents, IP1-d2 tracer and anti-IP1-cryptate were diluted in lysis buffer according to the manufacturer's descriptions and added to the cells.
Following 60 min incubation at room temperature, time-resolved fluorescence (HTRF) was measured at 615 nm and 665 nm by Envision Multilabel reader (Perkin Elmer) and the HTRF ratio (A665/A615x104) was calculated.
The IP-1 accumulation response was expressed as percentage of the maximal OX-A response.
Curve fitting and EC50 estimations were carried out using a four-parameter logistic model using XLfit Software. Mean data of EC50 are calculated from at least two independent experiments performed in duplicates.
In the Tables, below Category A corresponds to compounds displaying an […]<100 nM, Category B between 100 nM and 1,000 nM, Category C between 1,000 nM and 10,000 nM and Category D above 10,000 nM.

Row | EC50 | SMILES
1 | 1000 to 10000 nM | CN(C)S(=O)(=O)NCC(CO[C@H]1CC[C@@H](c2ccccc2)CC1)n1ccccc1=O (relative stereo) [Example 1f, 1-{1-[(Dimethylsulfamoyl)amino]-3-{[(CIS)-4-phenylcyclohexyl]oxy}propan-2-yl}-1,2-dihydropyridin-2-one]
2 | < 100 nM | Cc1cc(C(CNS(=O)(=O)CF)CO[C@H]2CC[C@@H](c3cc(F)cc(F)c3)CC2)c(=O)n(C)c1 (relative stereo) [Example 5t, N-[2-(1,5-dimethyl-2-oxo-1,2-dihydropyridin-3-yl)-3-{[(CIS)-4-(3,5-difluorophenyl)cyclohexyl]oxy}propyl]-1-fluoromethanesulfonamide]
3 | 1000 to 10000 nM | CS(=O)(=O)NCC(CO[C@H]1CC[C@@H](c2ccccc2)CC1)n1ccccc1=O (single isomer, unassigned; isomer 1) [Example 1a, (R or S) N-[2-(2-oxo-1,2-dihydropyridin-1-yl)-3-{[(CIS)-4-phenylcyclo-hexyl]oxy}propyl] methane-sulfonamide- Isomer 1]
4 | > 10000 nM | Cc1cccn(C(CNS(C)(=O)=O)CO[C@H]2CC[C@@H](c3ccccc3)CC2)c1=O (single isomer, unassigned; isomer 1) [Example 1d, (R or S) N-[2-(3-methyl-2-oxo-1,2-dihydropyridin-1-yl)-3-{[(CIS)-4-phenylcyclo-hexyl]oxy}propyl] methane-sulfonamide- Isomer 1]
5 | > 10000 nM | CCc1cccn(C(CNS(C)(=O)=O)CO[C@H]2CC[C@@H](c3ccccc3)CC2)c1=O (single isomer, unassigned; isomer 1) [Example 2a, (R or S) N-[2-(3-ethyl-2-oxo-1,2-dihydropyridin-1-yl)-3-{[(CIS)-4-phenylcyclohexyl]oxy}propyl]methanesulfonamide-Isomer 1]
6 | > 10000 nM | Cc1ccn(C(CNS(C)(=O)=O)CO[C@H]2CC[C@@H](c3ccccc3)CC2)n1 (single isomer, unassigned; isomer 1) [Example 2ab, (R or S) N-[2-(3-methyl-1H-pyrazol-1-yl)-3-{[(CIS)-4-phenylcyclohexyl]oxy}propyl]methanesulfonamide-Isomer 1]
7 | > 10000 nM | Cc1ccnn1C(CNS(C)(=O)=O)CO[C@H]1CC[C@@H](c2ccccc2)CC1 (single isomer, unassigned; isomer 1) [Example 2ad, (R or S) N-[2-(5-methyl-1H-pyrazol-1-yl)-3-{[(CIS)-4-phenylcyclohexyl]oxy}propyl]methanesulfonamide-Isomer 1]
8 | < 100 nM | Cc1cc(C)c(=O)n(C(CNS(C)(=O)=O)CO[C@H]2CC[C@@H](c3cccc(F)c3)CC2)c1 (single isomer, unassigned; isomer 1) [Example 2af, (R or S) N-[2-(3,5-dimethyl-2-oxo-1,2-dihydropyridin-1-yl)-3-{[(CIS)-4-(3-fluorophenyl)cyclohexyl]oxy}propyl]methanesulfonamide-Isomer 1]
9 | < 100 nM | Cc1cc(Cl)cn(C(CNS(C)(=O)=O)CO[C@H]2CC[C@@H](c3cccc(F)c3)CC2)c1=O (single isomer, unassigned; isomer 1) [Example 2ah, (R or S) N-[2-(5-chloro-3-methyl-2-oxo-1,2-dihydropyridin-1-yl)-3-{[(CIS)-4-(3-fluorophenyl)cyclohexyl]oxy}propyl]methanesulfonamide-Isomer 1]
10 | < 100 nM | Cc1cc(C)c(=O)n(C(CNS(=O)(=O)N(C)C)CO[C@H]2CC[C@@H](c3cccc(F)c3)CC2)c1 (single isomer, unassigned; isomer 1) [Example 2ar, (R or S) 1-[1-[(dimethylsulfamoyl)amino]-3-{[(CIS)-4-(3-fluorophenyl)cyclohexyl]oxy}propan-2-yl]-3,5-dimethyl-1,2-dihydropyridin-2-one-Isomer 1]
11 | < 100 nM | Cc1cc(C)c(=O)n(C(CNS(=O)(=O)CF)CO[C@H]2CC[C@@H](c3cccc(F)c3)CC2)c1 (single isomer, unassigned; isomer 1) [Example 2au, (R or S) N-[2-(3,5-dimethyl-2-oxo-1,2-dihydropyridin-1-yl)-3-{[(CIS)-4-(3-fluorophenyl)cyclohexyl]oxy}propyl]-1-fluoromethanesulfonamide-Isomer 1]
12 | 1000 to 10000 nM | Cc1cc(C)c(=O)n(C(CNS(C)(=O)=O)COC2CCN(c3ncc(F)cn3)CC2)c1 (single isomer, unassigned; isomer 1) [Example 2az, (R or S) N-[2-(3,5-dimethyl-2-oxo-1,2-dihydropyridin-1-yl)-3-{[1-(5-fluoropyrimidin-2-yl)piperidin-4-yl]oxy}propyl]methanesulfonamide-Isomer 1]
13 | 1000 to 10000 nM | CS(=O)(=O)NCC(CO[C@H]1CC[C@@H](c2ccccc2)CC1)n1cccc(F)c1=O (single isomer, unassigned; isomer 1) [Example 2g, (R or S) N-[2-(3-fluoro-2-oxo-1,2-dihydropyridin-1-yl)-3-{[(CIS)-4-phenylcyclohexyl]oxy}propyl]methanesulfonamide-Isomer 1]
14 | 100 to 1000 nM | Cc1ccc(=O)n(C(CNS(C)(=O)=O)CO[C@H]2CC[C@@H](c3ccccc3)CC2)c1 (single isomer, unassigned; isomer 1) [Example 2j, (R or S) N-[2-(5-methyl-2-oxo-1,2-dihydropyridin-1-yl)-3-{[(CIS)-4-phenylcyclohexyl]oxy}propyl]methanesulfonamide-Isomer 1]
15 | 100 to 1000 nM | Cc1ccn(C(CNS(C)(=O)=O)CO[C@H]2CC[C@@H](c3ccccc3)CC2)c(=O)c1C (single isomer, unassigned; isomer 1) [Example 2n, (R or S) N-[2-(3,4-dimethyl-2-oxo-1,2-dihydropyridin-1-yl)-3-{[(CIS)-4-phenylcyclohexyl]oxy}propyl]methanesulfonamide-Isomer 1]
16 | < 100 nM | Cc1cc(C)c(=O)n(C(CNS(C)(=O)=O)CO[C@H]2CC[C@@H](c3ccccc3)CC2)c1 (single isomer, unassigned; isomer 1) [Example 2t, (R or S) N-[2-(3,5-dimethyl-2-oxo-1,2-dihydropyridin-1-yl)-3-{[(CIS)-4-phenylcyclohexyl]oxy}propyl]methanesulfonamide-Isomer 1]
17 | 1000 to 10000 nM | Cc1cccn(C(CO[C@H]2CC[C@@H](c3ccccc3)CC2)C(C)NS(C)(=O)=O)c1=O (single isomer, unassigned; isomer 1) [Example 3a, (2R or 2S) and (3R or 3S) N-[3-(3-methyl-2-oxo-1,2-dihydropyridin-1-yl)-4-{[(CIS)-4-phenylcyclohexyl]oxy}butan-2-yl]methanesulfonamide—Isomer 1]
18 | 1000 to 10000 nM | Cn1cccc(C(CNS(C)(=O)=O)CO[C@H]2CC[C@@H](c3ccccc3)CC2)c1=O (single isomer, unassigned; isomer 1) [Example 4a, (R or S) N-[2-(1-methyl-2-oxo-1,2-dihydropyridin-3-yl)-3-{[(CIS)-4-phenylcyclohexyl]oxy}propyl]methanesulfonamide—Isomer 1]
19 | < 100 nM | Cc1cc(C(CNS(=O)(=O)N(C)C)CO[C@H]2CC[C@@H](c3cccc(F)c3)CC2)c(=O)n(C(F)F)c1 (single isomer, unassigned; isomer 1) [Example 5ab, (R or S) 1-(difluoromethyl)-3-[1-[(dimethylsulfamoyl)amino]-3-{[(CIS)-4-(3-fluorophenyl)cyclohexyl]oxy}propan-2-yl]-5-methyl-1,2-dihydropyridin-2-one—Isomer 1]
